Laboratory results published in US6730792B2, “β3 adrenergic agonists” (Eli Lilly and Company, priority 2000, dated 2004).

Target: T1, human β3 adrenergic receptor (Homo sapiens, UniProt P13945)
T1 construct: expressed in transfected cells; host or cells: DXB-11 Chinese hamster ovary (CHO) cell line, stably transfected (phd expression vector)
Assay: whole cell receptor coupled c-AMP assay, human β3 receptor in CHO cells (EC50, Emax relative to isoproterenol)
Type: cell-based
Conditions: % intrinsic activity relative to isoproterenol maximal response; SEM in brackets; c-AMP in transfected CHO cells
Summary of the method: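 Stably transfected DXB-11 CHO cells (20,000/well) were exposed to compound for 20 min at 37 °C in HBSS/HEPES buffer with 1 mM IBMX, pH 7.4. cAMP was measured by SPA. EC50 came from a four-parameter logistic fit, and Emax is the maximal response as a percentage of isoproterenol's.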

T1 sequence (P13945 whole entry): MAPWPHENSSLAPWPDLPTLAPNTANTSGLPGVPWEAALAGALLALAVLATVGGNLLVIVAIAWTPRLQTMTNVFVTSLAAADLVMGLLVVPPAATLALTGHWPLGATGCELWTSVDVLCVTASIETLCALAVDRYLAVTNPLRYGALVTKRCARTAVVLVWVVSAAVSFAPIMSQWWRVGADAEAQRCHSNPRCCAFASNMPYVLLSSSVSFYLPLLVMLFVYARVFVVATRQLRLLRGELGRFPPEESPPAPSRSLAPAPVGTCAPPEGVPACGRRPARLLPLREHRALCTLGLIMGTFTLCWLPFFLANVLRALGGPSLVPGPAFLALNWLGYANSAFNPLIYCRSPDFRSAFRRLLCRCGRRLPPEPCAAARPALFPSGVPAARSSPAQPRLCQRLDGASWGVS

Emax [%] | SMILES
67.4 | CC(C)(Cc1ccc(Oc2ncccc2C(N)=O)cc1)NC[C@H](O)COc1ccccc1-c1ccc(C(N)=O)s1 [Example 450]

Same assay, conditions: % intrinsic activity relative to isoproterenol maximal response; average of at least 3 runs; c-AMP in transfected CHO cells

SMILES | Emax (%) ± SEM [%]
CC(C)(Cc1ccc(Oc2ccc(S(C)(=O)=O)cc2)cc1)NC[C@H](O)COc1ccccc1-c1ccncc1.Cl.Cl [Example 377] | 33.0 ± 4.2
CC(C)(Cc1ccc(Oc2ccc(S(C)(=O)=O)cc2)cc1)NC[C@H](O)COc1ccccc1-c1cccs1.Cl [Example 383] | 52.1 ± 5.4
CC(C)(Cc1ccc(Oc2ccc(S(C)(=O)=O)cc2)cc1)NC[C@H](O)COc1ccccc1-c1ccco1.Cl [Example 395] | 46.6 ± 5.9
CC(C)(Cc1ccc(Oc2ncccc2C#N)cc1)NC[C@H](O)COc1c(F)cccc1-c1ccc(Cl)s1.Cl [Example 438] | 64.3 ± 12.4
CC(=O)c1ccc(-c2ccccc2OC[C@@H](O)CNC(C)(C)Cc2ccc(Oc3ccc(C(N)=O)cn3)cc2)s1.O=C(O)C(F)(F)F [Example 411] | 78.2 ± 9.9
CC(=O)c1ccc(-c2ccccc2OC[C@@H](O)CNC(C)(C)Cc2ccc(Oc3ncccc3C#N)cc2)s1.O=C(O)C(F)(F)F [Example 415] | 80.6 ± 5.7

Second part, the molecule after the results:

Emax (%) ± SEM [%] | SMILES
71.3 ± 3.9 | Cc1ccc(-c2ccccc2OC[C@@H](O)CNC(C)(C)Cc2ccc(Oc3ccc(C(N)=O)cn3)cc2)s1.Cl [Example 409]
79.7 ± 7.6 | CC(=O)c1ccc(-c2ccccc2OC[C@@H](O)CNC(C)(C)Cc2ccc(Oc3ccc(C#N)cn3)cc2)s1.Cl [Example 407]
48.2 ± 6.7 | CC(C)(Cc1ccc(Oc2ncccc2C(N)=O)cc1)NC[C@H](O)COc1ccccc1-c1ccncc1 [Example 376]
29.0 ± 6.8 | CC(C)(Cc1ccc(Oc2ccc(C#N)cn2)cc1)NC[C@H](O)COc1ccccc1-c1ccncc1 [Example 373]
45.4 ± 5.6 | CC(C)(Cc1ccc(Oc2ccc(C#N)cn2)cc1)NC[C@H](O)COc1ccccc1-c1cc2ccccc2s1 [Example 384]
<10 | CC(C)(Cc1ccc(Oc2ccc(C#N)cn2)cc1)NC[C@H](O)COc1ccccc1-c1cccnc1 [Example 388]
20.3 ± 2.0 | CC(C)(Cc1ccc(Oc2ccc(C(N)=O)cn2)cc1)NC[C@H](O)COc1ccccc1-c1cccnc1 [Example 389]
78.7 ± 14.9 | CC(C)(Cc1ccc(Oc2ncccc2C(N)=O)cc1)NC[C@H](O)COc1ccccc1-c1cc2ccccc2s1.O=C(O)C(F)(F)F [Example 387]
71.2 ± 7.9 | CC(=O)c1ccc(-c2ccccc2OC[C@@H](O)CNC(C)(C)Cc2ccc(Oc3cccnc3C#N)cc2)s1.Cl [Example 424]
66.9 ± 9.2 | Cc1ccc(-c2ccccc2OC[C@@H](O)CNC(C)(C)Cc2ccc(Oc3ncccc3C#N)cc2)s1.Cl [Example 413]

Same assay, conditions: Emax ± SEM; average of at least 3 runs except as otherwise indicated; tested as the isolated form listed

Emax (%) ± SEM [%] | SMILES
71.2 ± 5.8 | CC(C)(Cc1ccc(Oc2ncccc2C(N)=O)cc1)NC[C@H](O)COc1ccccc1-c1ncco1.Cl [Example 308]
55.9 ± 2.8 | CC(C)(Cc1ccc(Oc2ccc(C#N)o2)cc1)NC[C@H](O)COc1ccccc1-c1nccs1.O=C(O)C(F)(F)F [Example 330]
69.2 ± 2.5 | CC(C)(Cc1ccc(Oc2ccc(C#N)nc2)cc1)NC[C@H](O)COc1ccccc1-c1ncco1.O=C(O)C(F)(F)F [Example 364]
60.2 ± 3.0 | CC(C)(Cc1ccc(Oc2ccc(C(N)=O)s2)cc1)NC[C@H](O)COc1ccccc1-c1nccs1.O=C(O)C(F)(F)F [Example 329]

Same assay, conditions: Emax ± standard error of the mean; average of at least 3 runs except where n = 1; compound tested in the isolated form listed

SMILES | Emax (%) ± SEM
CC(C)(Cc1ccc(Oc2ccc(C(N)=O)cn2)cc1)NC[C@H](O)COc1ccccc1-c1csnn1.O=C(O)C(=O)O [Example 44] | 22.1 ± 3.3%
CC(C)(Cc1ccc(Oc2ccc(C(N)=O)cc2F)cc1)NC[C@H](O)COc1ccccc1-c1nccs1.O=C(O)C(F)(F)F [Example 191] | 49.5 ± 1.5%
CC(C)(Cc1ccc(Oc2ncccc2C(N)=O)cc1)NC[C@H](O)COc1ccc(-c2ccno2)cc1 [Example 94] | <10%
CCOC(=O)c1cccnc1Oc1ccc(CC(C)(C)NC[C@H](O)COc2ccccc2-c2ccno2)cc1.O=C(O)C(F)(F)F [Example 112] | 56.9 ± 8.6%
CC(C)(Cc1ccc(Oc2ncccc2C(N)=O)cc1)NC[C@H](O)COc1ccccc1-c1nncs1.O=C(O)C(=O)O [Example 97] | 52.4 ± 0.8%
CC(C)(Cc1ccc(Oc2ncccn2)cc1)NC[C@H](O)COc1ccccc1-c1cccs1.O=C(O)C(F)(F)F [Example 150] | 69.8 ± 6.0%
CC(C)(Cc1ccc(Oc2ccc(S(C)(=O)=O)cc2)cc1)NC[C@H](O)COc1ccccc1-c1ccon1.Cl [Example 134] | 47.7 ± 6.5%
CC(C)(Cc1ccc(Oc2ccncc2)cc1)NC[C@H](O)COc1ccccc1-c1nccs1.O=C(O)C(F)(F)F [Example 203] | 57.8 ± 3.1%
CCOC(=O)c1ccc(Oc2ccc(CC(C)(C)NC[C@H](O)COc3ccccc3-c3ccno3)cc2)c(Cl)c1.O=C(O)C(F)(F)F [Example 288] | 52.9 ± 7.4%
CC(C)(Cc1ccc(Oc2ncccn2)cc1)NC[C@H](O)COc1ccccc1-c1cscn1.Cl [Example 257] | 49.9 ± 3.4%
CC(C)(Cc1ccc(Oc2nc(Cl)c(Cl)cc2Cl)cc1)NC[C@H](O)COc1ccccc1-c1cccs1.O=C(O)C(F)(F)F [Example 156] | 84.9 ± 0.2%
CC(C)(Cc1ccc(Oc2ccc(C(N)=O)cn2)cc1)NC[C@H](O)COc1ccccc1-c1nncs1.O=C(O)C(=O)O [Example 42] | 43.3 ± 2.7%
CC(C)(Cc1ccc(Oc2ccc(Cl)nn2)cc1)NC[C@H](O)COc1ccccc1-c1nccs1.O=C(O)C(F)(F)F [Example 209] | 88.3 ± 8.0%
CC(C)(Cc1ccc(Oc2ncccc2C(N)=O)cc1)NC[C@H](O)COc1ccccc1-c1nccs1.Cl [Example 71] | 65.6 ± 1.3%
CC(C)(Cc1ccc(Oc2ccc(C(F)(F)F)cc2Cl)cc1)NC[C@H](O)COc1ccccc1-c1nccs1.O=C(O)C(F)(F)F [Example 171] | 47.9 ± 6.5%
CC(C)(Cc1ccc(Oc2ccc(S(C)(=O)=O)cc2)cc1)NC[C@H](O)COc1ccccc1-c1ccno1.O=C(O)C(F)(F)F [Example 135] | 35.2 ± 4.3%
CC(C)(Cc1ccc(Oc2nc(Cl)c(Cl)cc2Cl)cc1)NC[C@H](O)COc1ccccc1-c1ccno1.O=C(O)C(F)(F)F [Example 158] | 73.0 ± 3.0%
CC(C)(Cc1ccc(Oc2ccc(S(N)(=O)=O)cc2F)cc1)NC[C@H](O)COc1ccccc1-c1cscn1.Cl [Example 251] | 33.4 ± 5.7%
CC(C)(Cc1ccc(Oc2ncccc2C#N)cc1)NC[C@H](O)COc1cccc(F)c1-c1cccs1.O=C(O)C(F)(F)F [Example 64] | 30.5 ± 6.8%
CC(C)(Cc1ccc(Oc2ccc(S(C)(=O)=O)cc2F)cc1)NC[C@H](O)COc1ccccc1-c1nccs1.O=C(O)C(F)(F)F [Example 224] | 37.0 ± 0.3%
CC(C)(Cc1ccc(Oc2ccc(C(F)(F)F)cc2Cl)cc1)NC[C@H](O)COc1ccccc1-c1cccs1.O=C(O)C(F)(F)F [Example 170] | 55.0 ± 4.8%
CC(C)(Cc1ccc(Oc2ccc(C(N)=O)cn2)cc1)NC[C@H](O)COc1ccc(-c2ccno2)cc1 [Example 36] | 17.5 n = 1%
CC(C)(Cc1ccc(-c2ccccc2C#N)cc1)NC[C@H](O)COc1ccccc1-c1ccno1.O=C(O)C(=O)O [Example 289] | 37.4 ± 7.2%
CC(C)(Cc1ccc(Oc2ncccc2C(N)=O)cc1)NC[C@H](O)COc1ccccc1-c1cscn1.Cl [Example 240] | 65.7 ± 3.8%

Second part, the molecule after the results:

Emax (%) ± SEM | SMILES
38.2 ± 2.0% | CC(C)(Cc1ccc(Oc2ccc(C#N)o2)cc1)NC[C@H](O)COc1ccccc1-c1cscn1.Cl [Example 260]
56.0 ± 2.9% | CC(C)(Cc1ccc(Oc2ccc(C#N)nc2)cc1)NC[C@H](O)COc1ccccc1-c1cccs1.O=C(O)C(F)(F)F [Example 220]
57.3 ± 3.5% | CC(C)(Cc1ccc(Oc2ccc(Cl)cn2)cc1)NC[C@H](O)COc1ccccc1-c1cccs1.O=C(O)C(F)(F)F [Example 167]
43.3 ± 6.8% | CC(C)(Cc1ccc(Oc2ccc(Cl)cn2)cc1)NC[C@H](O)COc1ccccc1-c1ccno1.O=C(O)C(F)(F)F [Example 169]
38.9 ± 7.1% | CC(C)(Cc1ccc(Oc2ccc(C#N)cc2)cc1)NC[C@H](O)COc1ccccc1-c1ccno1.O=C(O)C(F)(F)F [Example 121]
23.7 ± 10.0% | CC(C)(Cc1ccc(Oc2ccc(C#N)cn2)cc1)NC[C@H](O)COc1ccccc1-c1cc2ccccc2[nH]1 [Example 9]
51.7 ± 2.7% | CC(C)(Cc1ccc(Oc2ccc(C(N)=O)cn2)cc1)NC[C@H](O)COc1ccccc1-c1nnco1 [Example 30]
83.7 ± 3.0% | CC(C)(Cc1ccc(Oc2ncccc2C(N)=O)cc1)NC[C@H](O)COc1ccccc1-c1cccs1 [Example 68]
52.5 ± 4.7% | CC(C)(Cc1ccc(Oc2ccc(C#N)cc2Cl)cc1)NC[C@H](O)COc1ccccc1-c1cccs1.O=C(O)C(F)(F)F [Example 161]
45.4 ± 3.4% | CC(C)(Cc1ccc(Oc2ccc(C#N)cn2)cc1)NC[C@H](O)COc1ccccc1-c1cscn1.Cl [Example 247]
20.2 n = 1% | COC(=O)c1ccc(Oc2ccc(CC(C)(C)NC[C@H](O)COc3ccccc3-c3ccn[nH]3)cc2)c(Cl)c1 [Example 142]
20.7 n = 1% | COC(=O)c1ccc(Oc2ccc(CC(C)(C)NC[C@H](O)COc3ccccc3-c3ccnn3C)cc2)nc1 [Example 113]
45.9 ± 10.7% | CC(C)(Cc1ccc(Oc2ncccc2C(N)=O)cc1)NC[C@H](O)COc1ccccc1-c1nc2ccccc2s1 [Example 82]
